Where two headings read alike, the source gives them in different places.
Tests used:
[1] = cited from earlier work
[2] = P-4135F, cited from earlier work
[3] = cited from earlier work; remark: listed apart in the source
[4] = Rapamycin and doxorubicin loading into high AMPS beads by two methods; assay type: physicochemical; details: Method 2
Description: Unloaded high AMPS bead slurry 1 ml was loaded with doxorubicin solution (5 ml of 10.07 mg/ml, target loading 50 mg/ml Bead) overnight. The doxorubicin-loaded beads were washed with 1 ml DMSO 5 times to remove extra water, and 1 ml 60 mg/mL rapamycin DMSO solution was mixed with the doxorubicin beads for about 30 min. Subsequently, following removal of extra rapamycin DMSO solution, the beads were washed with 5 ml saline until no white drug particles were observed.
1 ml Bead slurry was washed with 1 mL DMSO 5 times and mixed with 1 ml 60 mg/ml rapamycin DMSO solution for 30 min. The loaded beads were then washed with 5 ml saline until no further white drug particles were observed. […]
Doxorubicin loading test: The doxorubicin loading was measured by depletion method in either water or DMSO solution. The loading solution was taken and diluted 10 times and measured by UV at 483 nm to determine the concentration of doxorubicin residue in solution. […] The concentration of rapamycin was determined by UV at 279 nm. […]
Doxorubicin loss determination: The doxorubicin loss during DMSO washing of loaded beads before further loading of rapamycin (Method 2) was determined by measuring the accumulated DMSO washing solution in a volumetric flask at 483 nm. […]
Rapamycin and doxorubicin standard curve: The maximum absorbance of rapamycin is at wavelength 279 nm, which is overlapped with doxorubicin absorbance. […]

[5] = Elution of doxorubicin and irinotecan from the same beads into 200 ml PBS; assay type: physicochemical; details: all samples
Description: After being sized, all samples were eluted. Here, the remaining loading solutions were removed using a Pasteur pipette and the loaded beads were transferred to brown flasks containing 200 ml of PBS (Inverclyde Biologicals). At time 5, 15, 30, 45, 60, 90 min, 2 h, 4 h and 24 h, an aliquot of elution medium (4 ml) was removed and replaced with 4 mL of fresh PBS to maintain the volume. All samples were read by UV at 483 and 369 nm wavelengths, using the corresponding standard curves to calculate the amount eluted at each time point.
These two assumptions were made for all calculations. All samples were read at both 483 nm and 369 nm wavelengths. Using the absorbance and the standard curve of doxorubicin at 483 nm, the concentration of doxorubicin in each sample was calculated and using these concentrations and the standard curve of doxorubicin at 369 nm, the absorbance of doxorubicin at this wavelength was calculated.

[6] = Loading of doxorubicin into ibuprofen-loaded low AMPS beads (depletion); assay type: physicochemical
Description: Ibuprofen and doxorubicin solutions were loaded into low AMPS beads simultaneously. In order to achieve this, one sample of 1 ml of 500-700 μm beads was loaded with ibuprofen (according to examples in WO2004073688). The excess packaging solution was removed using a Pasteur pipette and 2 ml of doxorubicin solution (5 mg.ml^−1) were added. After 24 h, a 50 μl aliquot was removed from the depleted solution and measured by UV at 263 nm and 483 nm. The amount of doxorubicin loaded into beads was calculated by depletion, as a difference between the initial and final amounts in the depleted solution (calculations explained below).
These two assumptions were made for all calculations. All samples were read at both wavelengths (263 nm and 483 nm). Using the absorbance at 483 nm the concentration of doxorubicin in each sample was calculated, then using these concentrations and the standard curve of doxorubicin at 263 nm, the absorbance of doxorubicin at 263 nm was calculated. By subtracting this value from the total absorbance at 263 nm, the concentration of ibuprofen, was calculated using the ibuprofen standard curve.
Initially, lyophilised beads as described in WO2004073688 were loaded with ibuprofen/ethanol solution by solvent evaporation and then rehydrated with water and autoclaved for 15 min at 121° C. […]

[7] = Loading of doxorubicin and irinotecan into the same high AMPS beads (depletion, UV); assay type: physicochemical; details: 1 ml high AMPS beads
Description: Five samples of 500-700 μm High AMPS beads of Example 1 were loaded with doxorubicin and irinotecan following different approaches:
Sample 1: 3.5 mL of irinotecan solution (Campto, Pfizer, 20 mg.mL^−1=70 mg) was loaded into 1 mL of beads for 48 h, to saturate all the sulfonate groups. Then, the depleted solution was removed and the loaded beads were washed with a known volume of deionised water to remove the non-bound drug. The amount of irinotecan loaded into the beads was calculated by depletion, as a difference between the initial and final amounts in the depleted solution and all washings measured by UV at a wavelength of 369 nm. One mL of doxorubicin (Dabur oncology-25 mg.ml^−1) was later added to the same beads and the loading profile determined. […] All solutions were measured by UV at a wavelength of 483 nm wavelength and the amount of drug loaded into the beads determined by depletion. After the beads were loaded and washed with deionised water, in a second step, 1.25 ml of irinotecan solution (20 mg.mL^−1=25 mg) was added to the same beads and the loading profile determined. […]
To determine the loading profiles of all samples, an aliquot of 50 μl was removed from each vial at time 5, 15, 30, 45 min after the addition of each drug, diluted as necessary and read by UV at 483 and 369 nm. […]

HepG2 cells = experiment: MTS cell viability assay with drug loaded beads; assay type: cell-based, human; details: Example 8, MTS, 72 hr exposure
Description: An MTS assay was also conducted on the wells. At 72 hrs, the media from all wells was cautiously removed and each well washed three times with 200 μl sterile PBS. After adding 100 μl PRF media to each well, 20 μl of the prepared MTS solution (Promega) was also added. After a two hours incubation (37° C., 5% CO2) the plate was read at 490 nm using the plate reader and like the LDH assay, if the reading was too high the samples were diluted (75 μl PRF media: 75 μl samples).
Example 7 was repeated substantially as described, with an extended number of beads of one of the drugs. The results of the MTS assay, i.e. showing cell viability % (log scale) of HepG2 cells after 72 hr exposure, concluded as the mean of 6 samples, is shown in FIG. 19.
An MTS assay was used to assess the synergistic cytotoxic effects of dual loaded beads on HepG2 and PSN1 cells. The rapamycin loaded beads and the doxorubicin loaded beads were the same as those described in Example 7. The dual loaded doxorubicin and rapamycin loaded beads were loaded and analysed as described in Example 4 Method 2 using a 1 ml 60 mg/ml rapamycin solution and 1 ml 37.5 mg/ml doxorubicin solution.
The assay was prepared as described in Example 7 using HepG2 cells and additional plates of PSN1 cells for analysis.
An MTS assay (described in example 7) was conducted after 24, 48 and 72 hrs exposure. […]

[8] = Elution of ibuprofen-irinotecan-loaded beads into PBS; assay type: physicochemical; details: after 5 hours, irinotecan alone, combination comparable
Description: The elution of ibuprofen-irinotecan-loaded beads was carried out by mixing 0.24 ml beads with 200 ml PBS (Inverclyde, Bellshill, UK) and roller-mixed on a roller mixer. At certain time point, the solution (5 ml) was taken out for concentration determination by UV and same volume of fresh PBS was added to keep a sink condition.

[9] = Ibuprofen and irinotecan loading into high AMPS beads; assay type: physicochemical
Description: Drug loading: The drug loading procedure is shown in FIG. 9, in which the unloaded high AMPS beads were washed with DMSO to remove the water trapped within the hydrogel. A mixture of ibuprofen solubilised in DMSO and castor oil as crystallisation inhibitor were subsequently mixed with the bead slurry, and kept for about 10 minutes. Following the removal of the loading solution, saline was used to wash the loaded beads until no drug particles nor large oil droplets were observed. The irinotecan loading was achieved by simply mixing the ibuprofen-loaded beads with irinotecan solution (10 mg/mL) by roller-mixing overnight. The final loaded beads were kept in the water solution as product.
1). Ibuprofen. The content of loaded ibuprofen was determined by an HPLC method. […] The collected DMSO solution was topped to the mark in a 10 ml volumetric flask, and the concentration of ibuprofen was measured by HPLC. […] The content of irinotecan in loaded beads was measured by depletion method. […] The loading solution was diluted with water and measured by UV at 369 nm. Compared to the standard curve, the concentration of irinotecan left in loading solution can be calculated.
To determinate the concentration of each component in a combined drug solution, the standard curves for absorption of predetermined concentrations of ibuprofen and irinotecan at 263, 272 and 369 nm in water were measured. […]

[10] = cited from earlier work; remark: listed apart in the source

Nc1nc2c(c(=O)[nH]1)N(C=O)C(CNc1ccc(C(=O)N[C@@H](CCC(=O)O)C(=O)O)cc1)CN2 (some centres unmarked) [LV, leucovorin]
encapsulation rate ([1]; Eudragit P-4135F): 55.4±2.7% | encapsulation rate ([1]; Eudragit RS100): 81.4±8.6% | initial drug loss ([2]; pH 6.8): about 60% | time to complete release ([2]; pH 6.8): ≤ 2 h

O=c1[nH]cc(F)c(=O)[nH]1 [Sample 5-FU, 5-fluorouracil]
encapsulation rate ([1]; Eudragit P-4135F): 48.3±2.0% | encapsulation rate ([1]; Eudragit RS100): 60.3±9.7% | 5-FU release ([2]; pH 6.8, within 4 h): lower than 25% | time of nearly immediate release ([2]; pH 7.4): ≤ 15 min | encapsulation efficiency ([3]; PLGA microparticles): 19% | encapsulation efficiency ([3]; encapsulated with Paclitaxel): 30%

COc1cccc2c1C(=O)c1c(O)c3c(c(O)c1C2=O)C[C@@](O)(C(=O)CO)C[C@@H]3O[C@H]1C[C@H](N)[C@H](O)[C@H](C)O1 [doxorubicin]
doxorubicin loss during DMSO washing before rapamycin loading [4]: about 6.71 mg/ml | doxorubicin released ([5]; in 24 h): < 25% | maximum amount of doxorubicin loaded into ibuprofen loaded beads ([6]; 1 ml low AMPS beads, doxorubicin solution 5 mg/ml, 24 h): 8.3 mg | maximum capacity of low AMPS beads for doxorubicin ([6]; loaded with this drug alone): ~14 mg/mL | maximum loading capacity of the beads [7]: ~40 mg | cytotoxicity when eluted individually (HepG2 cells): more cytotoxic to the cells than rapamycin

CCc1c2c(nc3ccc(OC(=O)N4CCC(N5CCCCC5)CC4)cc13)-c1cc3c(c(=O)n1C2)COC(=O)[C@]3(O)CC [irinotecan]
irinotecan eluted [8]: ~100% | maximum irinotecan loading capacity for unloaded beads [9]: 50 to 60 mg/mL | irinotecan loading efficiency ([9]; unloaded beads, below maximum loading capacity): above 98% | irinotecan released ([5]; in <4 h): > 99 % mg | maximum loading capacity of the beads [7]: 52 mg

heparin
initial burst release from the co-matrix ([10]; uncoated): 32.7% | initial burst release from the co-matrix ([10]; with polyethylene glycol coatings, for 24 hr): 25.4%

Source: patent US20110229572A1, “DELIVERY OF DRUG COMBINATIONS” (BIOCOMPATIBLES UK Limited, priority 2007, published 2011)
